Assay results published in patent publication US9981969B2, “Imidazole derivatives and methods of use thereof for improving the pharmacokinetics of a drug” (MERCK SHARP & DOHME CORP., priority 2013, dated 2018).

Experiments:
[1] = molecular target: T1, CYP3A4 (Homo sapiens, UniProt P08684); test: Cocktail assay for CYPs in human liver microsomes, midazolam 1′-hydroxylation (3A4); assay type: biochemical; settings: 2 μM midazolam, 10 min at 37° C.
T1 construct: 0.1 mg/mL protein human liver microsomes (BD Gentest); tissue BD Gentest; host or cells: human liver microsomes
T1 sequence (P08684 whole entry): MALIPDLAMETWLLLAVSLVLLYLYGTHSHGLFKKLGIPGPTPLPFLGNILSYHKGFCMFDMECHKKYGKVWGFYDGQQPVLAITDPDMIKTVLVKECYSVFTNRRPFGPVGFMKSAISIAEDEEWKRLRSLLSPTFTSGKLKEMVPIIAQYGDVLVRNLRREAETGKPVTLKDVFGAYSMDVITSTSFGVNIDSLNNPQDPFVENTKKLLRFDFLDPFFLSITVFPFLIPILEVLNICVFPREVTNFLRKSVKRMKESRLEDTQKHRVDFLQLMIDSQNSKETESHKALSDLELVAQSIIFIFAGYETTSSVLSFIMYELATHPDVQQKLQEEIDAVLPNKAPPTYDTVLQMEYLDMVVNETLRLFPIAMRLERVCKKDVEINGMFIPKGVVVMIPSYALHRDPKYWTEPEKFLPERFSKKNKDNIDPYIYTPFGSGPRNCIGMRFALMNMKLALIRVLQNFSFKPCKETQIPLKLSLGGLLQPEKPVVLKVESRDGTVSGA
Procedure, shortened: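 CYP3A4 inhibition was measured in human liver microsomes (0.1 mg/mL protein) with 2 μM midazolam as the probe substrate, 1 mM NAPDH, 3.3 mM MgCl2 and 100 mM potassium phosphate buffer (pH 7.4), incubated 10 min at 37° C. After acetonitrile treatment, metabolite was quantified by LC/MS/MS against a tolbutamide internal standard. Percent inhibition at 6 concentrations gave IC50 by SigmaPlot non-linear regression.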

[2] = molecular target: T2, CYP1A2 (Homo sapiens, UniProt P05177); test: Cocktail assay for CYPs in human liver microsomes, phenacetin O-deethylation (1A2); assay type: biochemical; settings: 10 μM phenacetin, 10 min at 37° C.
T2 construct: 0.1 mg/mL protein human liver microsomes (BD Gentest); tissue BD Gentest; host or cells: human liver microsomes
T2 sequence (P05177 1-516): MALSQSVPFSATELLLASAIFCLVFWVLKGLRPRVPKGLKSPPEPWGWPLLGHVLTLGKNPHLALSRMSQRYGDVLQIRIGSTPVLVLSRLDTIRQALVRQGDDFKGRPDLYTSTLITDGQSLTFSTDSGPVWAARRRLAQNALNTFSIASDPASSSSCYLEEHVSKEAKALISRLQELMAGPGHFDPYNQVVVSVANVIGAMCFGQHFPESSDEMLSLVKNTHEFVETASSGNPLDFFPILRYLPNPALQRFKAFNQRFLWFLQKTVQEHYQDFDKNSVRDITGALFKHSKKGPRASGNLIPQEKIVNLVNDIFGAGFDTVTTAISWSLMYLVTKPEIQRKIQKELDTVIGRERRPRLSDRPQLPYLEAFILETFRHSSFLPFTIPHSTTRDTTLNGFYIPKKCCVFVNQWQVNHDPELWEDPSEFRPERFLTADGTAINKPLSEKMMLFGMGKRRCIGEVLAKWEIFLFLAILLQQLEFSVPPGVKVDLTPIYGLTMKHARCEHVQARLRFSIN
Procedure, shortened: (§1)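 Pooled human liver microsomes (0.1 mg/mL) with substrate cocktail (10 μM phenacetin, 5 μM diclofenac, 30 μM mephenytoin, 5 μM dextromethorphan), 1 mM NADPH, pH 7.4 phosphate, 10 min at 37 °C. Metabolites by LC/MS/MS; IC50 from % inhibition at 6 concentrations up to 10 μM.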

[3] = molecular target: T3, CYP2C9 (Homo sapiens, UniProt P11712); test: Cocktail assay for CYPs in human liver microsomes, diclofenac 4′-hydroxylation (2C9); assay type: biochemical; settings: 5 μM diclofenac, 10 min at 37° C.
T3 construct: 0.1 mg/mL protein human liver microsomes (BD Gentest); tissue BD Gentest; host or cells: human liver microsomes
T3 sequence (P11712 whole entry): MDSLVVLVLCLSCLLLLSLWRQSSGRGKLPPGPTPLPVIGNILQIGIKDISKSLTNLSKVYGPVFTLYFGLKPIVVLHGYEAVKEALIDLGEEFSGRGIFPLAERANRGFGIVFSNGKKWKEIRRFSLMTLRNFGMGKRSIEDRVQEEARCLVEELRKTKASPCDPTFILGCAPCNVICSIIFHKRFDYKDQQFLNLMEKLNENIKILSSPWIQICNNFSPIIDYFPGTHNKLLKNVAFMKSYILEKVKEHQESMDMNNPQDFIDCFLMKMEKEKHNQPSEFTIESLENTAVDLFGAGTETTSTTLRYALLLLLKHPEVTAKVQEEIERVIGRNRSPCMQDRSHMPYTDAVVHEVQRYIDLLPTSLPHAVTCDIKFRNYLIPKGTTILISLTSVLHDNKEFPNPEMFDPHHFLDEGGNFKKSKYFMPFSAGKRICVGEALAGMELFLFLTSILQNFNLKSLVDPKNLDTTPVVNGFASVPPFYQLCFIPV
Procedure, shortened: as §1

[4] = molecular target: T4, human CYP11B1 (Homo sapiens, UniProt P15538); test: IC50 vs CYP11B1 by measurement of cortisol synthesis in V79 cells; assay type: cell-based; settings: V79 cells expressing human CYP11B1, 1500 nM RSS, cortisol HTRF
T4 construct: expressed in transfected cells
T4 sequence (P15538 25-503): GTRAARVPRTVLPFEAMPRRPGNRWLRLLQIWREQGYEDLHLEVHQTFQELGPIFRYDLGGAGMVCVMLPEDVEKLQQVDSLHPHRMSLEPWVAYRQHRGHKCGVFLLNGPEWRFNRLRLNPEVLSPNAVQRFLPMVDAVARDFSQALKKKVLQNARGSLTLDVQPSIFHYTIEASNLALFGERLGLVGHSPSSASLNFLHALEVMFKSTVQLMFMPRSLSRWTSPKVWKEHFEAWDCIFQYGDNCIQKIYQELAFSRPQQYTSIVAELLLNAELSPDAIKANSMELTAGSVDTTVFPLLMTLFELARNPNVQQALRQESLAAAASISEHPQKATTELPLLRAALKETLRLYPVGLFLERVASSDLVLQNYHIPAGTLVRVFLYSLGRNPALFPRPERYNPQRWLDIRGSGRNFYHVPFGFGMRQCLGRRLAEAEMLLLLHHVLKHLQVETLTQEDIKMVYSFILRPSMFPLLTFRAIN
Procedure, shortened: (§2)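 V79 cells stably expressing CYP11B1 or CYP11B2 were treated with test compound at 10 concentrations (e.g. 10000 down to 0.5 nM), with 1500 nM RSS (CYP11B1) or 750 nM DOC (CYP11B2) as substrate. After ~15 h at RT in the dark, supernatant cortisol/aldosterone was measured by HTRF and back-calculated from a standard curve. IC50 was taken as the inflection point of a four-parameter fit.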

[5] = molecular target: T5, CYP2D6 (Homo sapiens, UniProt P10635); test: Cocktail assay for CYPs in human liver microsomes, dextromethorphan O-demethylation (2D6); assay type: biochemical; settings: 5 μM dextromethorphan, 10 min at 37° C.
T5 construct: 0.1 mg/mL protein human liver microsomes (BD Gentest); tissue BD Gentest; host or cells: human liver microsomes
T5 sequence (P10635 whole entry): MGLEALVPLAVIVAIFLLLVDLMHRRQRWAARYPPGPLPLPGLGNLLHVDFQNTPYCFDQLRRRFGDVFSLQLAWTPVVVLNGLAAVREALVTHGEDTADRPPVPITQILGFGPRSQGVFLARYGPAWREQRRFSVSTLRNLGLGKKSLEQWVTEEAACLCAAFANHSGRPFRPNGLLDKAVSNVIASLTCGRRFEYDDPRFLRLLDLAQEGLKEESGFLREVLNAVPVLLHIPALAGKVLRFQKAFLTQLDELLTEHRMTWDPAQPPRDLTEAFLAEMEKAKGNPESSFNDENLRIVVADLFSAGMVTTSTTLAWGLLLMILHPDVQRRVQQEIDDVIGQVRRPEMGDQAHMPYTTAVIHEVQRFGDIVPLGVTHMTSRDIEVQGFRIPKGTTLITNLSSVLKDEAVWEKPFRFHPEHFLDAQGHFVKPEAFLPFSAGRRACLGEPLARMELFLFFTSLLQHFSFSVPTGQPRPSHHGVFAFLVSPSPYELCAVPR
Procedure, shortened: as §1

[6] = molecular target: T6, human CYP11B2 (Homo sapiens, UniProt P19099); test: IC50 vs CYP11B2 by measurement of aldosterone synthesis in V79 cells; assay type: cell-based; settings: V79 cells expressing human CYP11B2, 750 nM DOC, aldosterone HTRF
T6 construct: expressed in transfected cells
T6 sequence (P19099 25-503): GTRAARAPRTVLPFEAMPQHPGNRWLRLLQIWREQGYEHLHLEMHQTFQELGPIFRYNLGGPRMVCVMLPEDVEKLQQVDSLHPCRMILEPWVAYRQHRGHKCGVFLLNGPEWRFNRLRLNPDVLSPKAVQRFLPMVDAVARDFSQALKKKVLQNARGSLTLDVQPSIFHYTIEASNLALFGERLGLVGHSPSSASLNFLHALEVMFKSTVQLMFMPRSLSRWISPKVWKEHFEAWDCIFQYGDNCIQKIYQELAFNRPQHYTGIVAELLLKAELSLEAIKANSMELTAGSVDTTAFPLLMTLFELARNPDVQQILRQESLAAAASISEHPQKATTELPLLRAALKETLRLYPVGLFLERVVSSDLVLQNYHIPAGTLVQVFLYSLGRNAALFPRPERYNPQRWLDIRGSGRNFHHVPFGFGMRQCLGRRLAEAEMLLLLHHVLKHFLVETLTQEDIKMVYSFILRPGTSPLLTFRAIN
Procedure, shortened: as §2

[7] = molecular target: T7, CYP2C19 (Homo sapiens, UniProt P33261); test: Cocktail assay for CYPs in human liver microsomes, mephenytoin 4′-hydroxylation (2C19); assay type: biochemical; settings: 30 μM mephenytoin, 10 min at 37° C.
T7 construct: 0.1 mg/mL protein human liver microsomes (BD Gentest); tissue BD Gentest; host or cells: human liver microsomes
T7 sequence (P33261 whole entry): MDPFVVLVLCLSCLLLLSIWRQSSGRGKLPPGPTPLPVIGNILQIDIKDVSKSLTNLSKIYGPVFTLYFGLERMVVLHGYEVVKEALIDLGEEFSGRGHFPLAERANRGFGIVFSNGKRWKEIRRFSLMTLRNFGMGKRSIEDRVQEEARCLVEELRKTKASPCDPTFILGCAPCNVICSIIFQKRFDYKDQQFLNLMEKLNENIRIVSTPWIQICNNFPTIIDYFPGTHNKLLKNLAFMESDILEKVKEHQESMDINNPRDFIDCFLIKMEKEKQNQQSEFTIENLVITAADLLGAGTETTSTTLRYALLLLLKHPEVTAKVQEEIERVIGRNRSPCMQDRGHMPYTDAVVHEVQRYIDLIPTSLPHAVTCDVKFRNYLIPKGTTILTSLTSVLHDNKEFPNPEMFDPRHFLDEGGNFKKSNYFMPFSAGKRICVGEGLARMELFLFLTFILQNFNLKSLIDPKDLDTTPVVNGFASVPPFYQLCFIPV
Procedure, shortened: as §1

IC50 [1]	IC50 [2]	IC50 [3]	IC50 [4]	IC50 [5]	IC50 [6]	IC50 [7]	Compound
0.0066 µM	> 10 µM	> 10 µM	30.3 µM	7.09 µM	> 50 µM	> 10 µM	C[C@@H](c1ccccc1-c1cccc2c1OCC2)n1cncc1C(=O)N1CCC2NCCO[C@@H]2C1 (stereo partly shown) [Compound 43]
0.005 µM	> 10 µM	> 10 µM	12.2 µM	5.86 µM	> 50 µM	> 10 µM	COc1ccccc1-c1ccccc1[C@H](C)n1cncc1C(=O)N1CCC2NCCO[C@@H]2C1 (stereo partly shown) [Compound 44]
0.0077 µM	> 10 µM	> 10 µM	> 50 µM	> 10 µM	> 50 µM	> 10 µM	C[C@@H](c1ccccc1CN1CCC(F)CC1)n1cncc1C(=O)N1CCC2NCCO[C@@H]2C1 (stereo partly shown) [Compound 45]
0.0085 µM	> 10 µM	> 10 µM	45.3 µM	9.25 µM	9.02 µM	> 10 µM	CC(C)c1ccccc1[C@H](C)n1cncc1C(=O)N1CCC2NCCO[C@@H]2C1 (stereo partly shown) [Compound 47]
0.0037 µM	> 10 µM	> 10 µM	6.03 µM	≥ 10 µM	36.3 µM	9.54 µM	C[C@@H](c1ccccc1-c1ccc(F)cc1)n1cncc1C(=O)N1CCC(F)(CN2CCOCC2)CC1 [Compound 49]
0.0048 µM	> 10 µM	> 10 µM	20.8 µM	> 10 µM	> 50 µM	> 10 µM	C[C@@H](c1ccccc1-c1ccc(F)cc1)n1cncc1C(=O)N1CCC2NC(=O)COC2(C)C1 (stereo partly shown) [Compound 51]
0.0032 µM	> 10 µM	> 10 µM	3.93 µM	> 10 µM	> 50 µM	> 10 µM	C[C@@H](c1ccccc1-c1ccc(F)cc1)n1cncc1C(=O)N1CCC[C@H]2OCCN[C@@H]2C1 [Compound 52]
0.011 µM	> 10 µM	> 10 µM	16.4 µM	> 10 µM	> 50 µM	> 10 µM	C[C@@H](c1ccccc1-c1ccc(F)cc1)n1cncc1C(=O)N1CCC[C@@H]2OCCN[C@H]2C1 [Compound 53]

Compound	IC50 [1]	IC50 [2]	IC50 [3]	IC50 [4]	IC50 [5]	IC50 [6]	IC50 [7]
C[C@@H](c1ccccc1C(C)(C)F)n1cncc1C(=O)N1CCC2NCCO[C@@H]2C1 (stereo partly shown) [Compound 46]	0.0109 µM	> 10 µM	> 10 µM	> 50 µM	5.8 µM	23.1 µM	> 10 µM
C[C@@H](c1ccccc1C1CCCC1)n1cncc1C(=O)N1CCC2NCCO[C@@H]2C1 (stereo partly shown) [Compound 48]	0.0055 µM	> 10 µM	> 10 µM	11.3 µM	> 10 µM	15.5 µM	> 10 µM
